From PMC11947619, “Molecular mechanism of Mad2 conformational conversion promoted by the Mad2‐interaction motif of Cdc20” (Protein Science : A Publication of the Protein Society, 2025)

Test system: C‐Mad2
Assay: NMR chemical shift perturbations of C-Mad2 by Cdc20 residues 138–152
Format: binding, human
Settings: inferred from small CSPs, spectra of C-Mad2:Cdc20^MIM-123-152 vs C-Mad2:Cdc20^MIM-123-137, and lack of cryo-EM structural information
Description: FIGURE 3 Mad2 conversion rates with different Cdc20^MIM peptides. (a) Schematic of human Cdc20. Box1: Box1 motif; C1: C‐box motif; K1: KEN box motif; MIM: Mad2‐interacting motif, residues 123–137; WD40: WD40 domain, residues 182–480; IR: IR tail. (b) Mad2 conversion in the presence of different Cdc20^MIM peptides. Mad2 conversion was traced at 25°C and the changes in the first 30 min are shown. A black tick indicates where conversion is considered complete. NMR data for O‐Mad2^R133A with Cdc20^MIM‐111‐138 shown for comparison are from Fischer et al. ([2022]). (c) The Cdc20^MIM‐138‐152‐binding site was identified by comparing the spectra of C‐Mad2:Cdc20^MIM‐123‐137 with C‐Mad2:Cdc20^MIM‐123‐152 (boxed in b) and analyzing their CSPs (Figure S8e,f). The Cdc20^MIM‐138‐152‐binding site (blue) is mapped onto the structure of C‐Mad2:Cdc20 from the cryo‐EM structure of the APC/C:MCC complex (PDB 6TLJ) (Alfieri et al., [2016], Alfieri et al., [2020]). The O‐Mad2 structural model is superimposed onto the C‐Mad2 structure for comparison. Cdc20 residues 138–152 are in yellow and residues 126–138 are in green. The β7/β8 hairpin in O‐Mad2 (red) blocks both the binding sites for Cdc20 residues 126–138 and residues 138–152. (d) As in c except the β7/β8 hairpin in O‐Mad2 is removed to expose the Cdc20 binding sites. […] (f) Cdc20^MIM‐123‐152 was titrated into Mad2^∆β7/β8 and its binding was analyzed by NMR. […]

Q: For “QNAPEGYQNRLKVLY [Cdc20^MIM‐138‐152, peptide of Cdc20 residues 138–152]”, which “association with C-Mad2, in words” value is on record?
A: only weakly associated with C‐Mad2
